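All cell lines were grown in 96-well plates and treated with compound for 48 hours. GI50 = concentration required for 50% inhibition of growth. TGI: concentration producing complete growth inhibition.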
Key:
Test in all cases: NCI-60 cell line screen, 48 h
[1] = system: CCRF-CEM leukemia
[2] = system: COLO 205 colon
[3] = system: DU-145 prostate
[4] = system: HCC-2998 colon
[5] = system: HCT-116 colon
[6] = system: HCT-15 colon
[7] = system: HL-60(TB) leukemia
[8] = system: HS 578T breast
[9] = system: HT29 colon
[10] = system: K-562 leukemia
[11] = system: KM12 colon
[12] = system: LOX IMVI melanoma
[13] = system: M14 melanoma
[14] = system: MALME-3M melanoma
[15] = system: MCF7 breast
[16] = system: MDA-MB-231 breast
[17] = system: MDA-MB-435
[18] = system: MOLT-4 leukemia
[19] = system: NCI-H226 lung
[20] = system: NCI-H23 lung
[21] = system: NCI-H522 lung
[22] = system: OVCAR-3 ovarian
[23] = system: OVCAR-5 ovarian
[24] = system: OVCAR-8 ovarian
[25] = system: PC-3 prostate
[26] = system: RPMI-8226 leukemia
[27] = system: SF-539 CNS
[28] = system: SK-MEL-2 melanoma
[29] = system: SK-MEL-5 melanoma
[30] = system: SN12C renal
[31] = system: SR leukemia
[32] = system: SW-620 colon
[33] = system: T-47D breast
[34] = system: UACC-257 melanoma
[35] = system: UACC-62 melanoma

COc1cc2c3c(n(CCCN4CCCCC4)c(=O)c2cc1OC)-c1cc2c(cc1C3=O)OCO2
GI50 [1]: 0.13 µM | TGI [1]: 0.988 µM | GI50 [2]: 1.11 µM | TGI [2]: 2.43 µM | GI50 [3]: 1.37 µM | TGI [3]: 2.68 µM | GI50 [4]: 1.22 µM | TGI [4]: 2.47 µM | GI50 [5]: 0.15 µM | TGI [5]: 0.309 µM | GI50 [6]: 1.26 µM | TGI [6]: 2.6 µM | GI50 [7]: 0.341 µM | TGI [7]: 0.965 µM | GI50 [8]: 2.07 µM | TGI [8]: 4.77 µM | GI50 [9]: 1.28 µM | TGI [9]: 2.67 µM | GI50 [10]: 0.179 µM | TGI [10]: 0.499 µM | GI50 [11]: 1.51 µM | TGI [11]: 2.85 µM | GI50 [12]: 0.716 µM | TGI [12]: 2.15 µM | GI50 [13]: 1.59 µM | TGI [13]: 3.05 µM | GI50 [14]: 1.65 µM | TGI [14]: 3.45 µM | GI50 [15]: 0.145 µM | TGI [15]: 2.05 µM | GI50 [16]: 1.21 µM | TGI [16]: 2.59 µM | GI50 [17]: 1.66 µM | TGI [17]: 3.22 µM | GI50 [18]: 0.0423 µM | TGI [18]: 2.02 µM | GI50 [19]: 1.54 µM | TGI [19]: 3.69 µM | GI50 [20]: 1.53 µM | TGI [20]: 3.01 µM | GI50 [21]: 0.932 µM | TGI [21]: 2.46 µM | GI50 [22]: 1.63 µM | TGI [22]: 3.02 µM | GI50 [23]: 1.84 µM | TGI [23]: 3.29 µM | GI50 [24]: 1.68 µM | TGI [24]: 4.17 µM | GI50 [25]: 1.26 µM | TGI [25]: 2.69 µM | GI50 [26]: 0.333 µM | TGI [26]: 1.47 µM | GI50 [27]: 1.46 µM | TGI [27]: 2.83 µM | GI50 [28]: 12.4 µM | TGI [28]: 28.3 µM | GI50 [29]: 1.6 µM | TGI [29]: 3.01 µM | GI50 [30]: 1.59 µM | TGI [30]: 3.05 µM | GI50 [31]: 0.143 µM | TGI [31]: 0.893 µM | GI50 [32]: 0.193 µM | TGI [32]: 1.35 µM | GI50 [33]: 1.58 µM | TGI [33]: 3.56 µM | GI50 [34]: 1.76 µM | TGI [34]: 3.96 µM | GI50 [35]: 1.38 µM | TGI [35]: 2.83 µM

— PubChem BioAssay (NCI)
